# Measurements as given in patent US11576913B2 (priority 2018, dated 2023).
# “Also recorded” adds a separate entry of the source.
# Tested on: healthy, non-dependent, recreational sedative users
# Assay: Human abuse potential study, Drug Liking VAS
# Type: in vivo
# Settings: for Drug Liking VAS - EMAX LSMean: N = 50, 100 point bipolar scale
# Experimental: This study was designed as a randomized, single-dose, double-blinded, double dummy, crossover study. The study population was healthy, nondependent recreational polydrug users with a history of Central Nervous System (CNS) depressant use.
# Subjects were screened no more than 28 days before check-in of period 1. Study drug was administered in each period according to the study randomization schedule. During Qualification, there was a minimum 24 hour washout period between each study drug administration. During the Treatment phase, there was a minimum 48-hour washout period between each study drug administration. Subjects were confined to the unit the day prior to, and for at least approximately 24 hours following, study drug administration during each period. If subjects were discharged between treatment periods, subjects returned to the unit the day prior to dosing.
# The Qualification Phase was designed to ensure that polydrug abusing subjects with self-reported recreational CNS depressant/sedative drug experience were able to tolerate and discriminate between orally administered triazolam tablets and placebo as well as to report positive subjective effects of the drug in a controlled laboratory setting. This phase was also used to exclude “placebo responders”, i.e., subjects who report subjective effects of placebo. This phase also helped familiarize subjects with, and trained them in the use of, various scales and questionnaires that measure subjective effects.
# The comparators in an abuse potential study are typically controlled substances from the same pharmacologic class as the investigational drug. However, Compound (1C) is a novel drug class for which no controlled substances/drugs of abuse are available for comparison. […] There was no evidence of other effects of interest to abusers, such as perceptual disturbances or stimulation. […] Placebo control was used to establish the frequency and magnitude of changes in clinical endpoints that may occur in the absence of active treatment as well as to minimize subject and investigator bias.
# In all of the study phases, treatments were blinded to the greatest extent possible to reduce potential bias during data collection and evaluation of clinical endpoints. Because study subjects were recreational drug users and familiar with the effects of the drug substances being studied, the double-dummy technique was be used in the Treatment Phase to maintain blinding. Subjects received tablets orally in each treatment period. Placebo was matched in size and shape to each of the tablet types, and a method to blind subjects will be employed.
# For each phase, subjects received treatments according to the randomization schema. During the Treatment Phase, subjects were be randomized to 1 of sequences in a 6×6 Williams square crossover design.
# Compound (1C) was administered orally in an immediate release tablet comprising the pharmaceutically acceptable excipients croscarmellose sodium (FMC Health and Nutrition, Philadelphia, Pa.), hydroxypropylcellulose (Ashland Inc., Covington, Ky.), microcrystalline cellulose (Dupont, Chicago, Ill.), mannitol (SPI Pharma, Wilmington, Del.), magnesium stearate (PlusPharma Inc., Vista, Calif.), and sodium lauryl sulfate (BASF Corp, Upper St. Clair, Pa.). […] Placebo tablets matching the Compound (1C) tablets were orally administered in the same way. The placebo tablets comprised the above-described pharmaceutically acceptable excipients but with no Compound (1C). Triazolam was administered at a dose of 0.5 or 1 mg. Trial endpoints are provided below.
# Peak Maximum Effect (Emax) for Drug Liking (“at this moment”) visual analog scale (“VAS”), was measured by study participants providing a score on a 100 point bipolar scale with 100 as strong liking, 50 as the neutral point of neither liking nor disliking, and 0 as strong disliking. […]
smiles,measurement,setting,value
O=C(O)c1nc2ccccc2n([C@H]2C[C@H]3CCC[C@@H](C2)N3C2CC3CCCC(C3)C2)c1=O (stereo partly drawn) [Compound (1C)],Drug Liking VAS - EMAX Diff from Placebo LSMean,1 mg,3.0 points
same,Drug liking compared with Triazolam 0.5 and 1 mg,1 mg,statistically smaller; also recorded: statistically less; also recorded: (1C) 1 mg was significantly lower than
same,Drug liking compared with placebo (words),1 mg,not significantly greater than placebo; also recorded: placebo was similar to placebo (upper bound
same,Drug Liking VAS - EMAX LSMean,1 mg single oral dose,58.1
same,Drug Liking VAS - EMAX Diff from Placebo LSMean,6 mg,17.7 points
same,Drug liking compared with Triazolam 0.5 and 1 mg,6 mg,not statistically different
same,Drug liking compared with placebo (words),6 mg,greater drug liking than placebo; also recorded: significantly greater
same,Drug Liking VAS - EMAX LSMean,6 mg single oral dose,72.82
same,Drug Liking VAS - EMAX Diff from Placebo LSMean,10 mg,21.2 points
same,Drug liking compared with Triazolam 0.5 and 1 mg,10 mg,not statistically different
same,Drug liking compared with placebo (words),10 mg,greater drug liking than placebo; also recorded: significantly greater
same,Drug Liking VAS - EMAX LSMean,10 mg single oral dose,76.4
same,"Drug Liking VAS - EMAX, Triazolam 0.5 mg - Cmpd. (1C) LSMean",Cmpd. (1C) 1 mg,17.4
same,"Drug Liking VAS - EMAX, Triazolam 1 mg - Cmpd. (1C) LSMean",Cmpd. (1C) 1 mg,20.5
same,"Drug Liking VAS - EMAX, Triazolam 0.5 mg - Cmpd. (1C) LSMean",Cmpd. (1C) 6 mg,2.7
same,"Drug Liking VAS - EMAX, Triazolam 1 mg - Cmpd. (1C) LSMean",Cmpd. (1C) 6 mg,5.8
same,"Drug Liking VAS - EMAX, Triazolam 0.5 mg - Cmpd. (1C) LSMean",Cmpd. (1C) 10 mg,−0.8
same,"Drug Liking VAS - EMAX, Triazolam 1 mg - Cmpd. (1C) LSMean",Cmpd. (1C) 10 mg,2.3
